Molecular target: T1, dipeptidylpeptidase IV (Rattus norvegicus, UniProt P14740)
T1 construct: partially purified through ammonium sulfate fractionation of a homogenate obtained from a kidney of a rat; from tissue; host or cells: rat kidney homogenate
Experiment: Measurement of dipeptidylpeptidase IV inhibiting activity (glycyl prolyl β-naphthylamide substrate, absorbance at 525 nm)
Format: biochemical
Settings: IC50 (dipeptidylpeptidase IV inhibition activity), enzyme partially purified from rat kidney homogenate; pH 7.2, 37° C., 1 hour
Description: Measurement of Dipeptidylpeptidase IV Inhibiting Activity
Water was added to a mixture of 0.025 ml of 3.2 mM glycyl prolyl β-naphthylamide (BACHEM, Switzerland), 0.1 ml of 0.1 M tris-maleic acid buffer solution (pH 7.2) and a compound shown in Table 1, so that a final volume was adjusted to 0.2 ml. The resulting mixed solution was warmed at 37° C. for 10 minutes, and 0.025 ml of a dipeptidylpeptidase IV solution partially purified through ammonium sulfate fractionation of a homogenate obtained from a kidney of a rat was added thereto. Then, the reaction was continued at 37° C. for 1 hour. […] At the same time, a blank test was conducted to measure absorbance (b) of the buffer solution containing no specimen. A dipeptidylpeptidase IV inhibition percent was calculated from the expression: [(b−a)/b]×100.

T1 sequence (P14740 whole entry): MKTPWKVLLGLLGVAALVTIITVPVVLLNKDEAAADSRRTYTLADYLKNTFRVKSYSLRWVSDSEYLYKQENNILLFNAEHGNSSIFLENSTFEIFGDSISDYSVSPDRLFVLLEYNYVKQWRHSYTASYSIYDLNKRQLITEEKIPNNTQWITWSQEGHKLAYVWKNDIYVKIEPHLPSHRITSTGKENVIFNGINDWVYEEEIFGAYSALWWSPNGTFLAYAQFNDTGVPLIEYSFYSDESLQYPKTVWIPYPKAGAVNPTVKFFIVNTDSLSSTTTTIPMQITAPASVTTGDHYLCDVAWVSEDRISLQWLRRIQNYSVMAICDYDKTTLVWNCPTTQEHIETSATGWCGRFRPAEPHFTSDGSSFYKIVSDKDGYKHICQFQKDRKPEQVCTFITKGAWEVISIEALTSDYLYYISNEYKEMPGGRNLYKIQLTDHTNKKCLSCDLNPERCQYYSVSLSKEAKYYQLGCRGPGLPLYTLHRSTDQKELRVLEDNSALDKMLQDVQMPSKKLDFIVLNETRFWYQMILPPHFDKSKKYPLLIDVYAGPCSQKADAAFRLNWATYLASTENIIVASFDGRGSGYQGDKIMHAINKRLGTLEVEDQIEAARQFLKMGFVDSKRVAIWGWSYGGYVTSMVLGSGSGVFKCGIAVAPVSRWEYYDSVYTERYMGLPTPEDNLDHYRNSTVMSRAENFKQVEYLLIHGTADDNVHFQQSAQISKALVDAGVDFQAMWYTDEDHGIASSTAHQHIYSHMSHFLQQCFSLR

Compound	IC50 [nM]
N[C@H]1CCN(P(N)(=O)NS(=O)(=O)O)C1=O (single isomer, unassigned) [Compound 20, 3(S)-Amino-1-((S*)-amino(sulfoamino)phosphinyl)-2-pyrrolidone]	1820
N[C@H]1CCN(P(N)(=O)NS(=O)(=O)O)C1=O (single isomer, unassigned) [Compound 21, 3(S)-Amino-1-((R*)-amino(sulfoamino)phosphinyl)-2-pyrrolidone]	15.1

From patent publication US6579989B1, “Sulphostin analogue and process for producing sulphostin and its analogue” (Zaidan Hojin Biseibutsu Kagaku Kenkyu Kai, priority 1999, dated 2003)
